Biological target: 4-hydroxyphenylpyruvate dioxygenase (Sus scrofa, UniProt Q02110)
Assay: In vitro inhibitory concentration required against 4-hydroxyphenylpyruvate dioxygenase (4-HPPD) taken from pig liver

4-hydroxyphenylpyruvate dioxygenase, sequence (Q02110 whole entry): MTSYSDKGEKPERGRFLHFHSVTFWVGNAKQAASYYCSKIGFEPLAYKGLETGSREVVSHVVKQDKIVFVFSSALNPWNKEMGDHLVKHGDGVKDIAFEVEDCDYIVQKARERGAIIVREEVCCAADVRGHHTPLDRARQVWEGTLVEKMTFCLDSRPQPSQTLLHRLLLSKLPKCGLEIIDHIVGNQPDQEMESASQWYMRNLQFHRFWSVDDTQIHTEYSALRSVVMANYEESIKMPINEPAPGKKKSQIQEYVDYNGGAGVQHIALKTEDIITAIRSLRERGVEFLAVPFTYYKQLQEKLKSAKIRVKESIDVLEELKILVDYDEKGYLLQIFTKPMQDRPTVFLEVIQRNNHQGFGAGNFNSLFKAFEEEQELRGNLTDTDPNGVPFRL

Q: With `CCOC(=O)C1CC(=O)C(C(=O)C2CC2)=C(NC(=O)C2CC2)C1` (stereo unspecified) as the compound, how does the IC50 read?
A: 10 µM

— ChEMBL document CHEMBL1136628, “Acylcyclohexanedione derivatives as potential in vivo sequential inhibitors of 4-hydroxyphenylpyruvate dioxygenase and GA(20) 3beta-hydroxylase” (Bioorg Med Chem Lett, 2003)
